# Assay results published in US20240156790A1, “COMPOUNDS, COMPOSITIONS, AND METHODS FOR MODULATING FERROPTOSIS AND TREATING EXCITOTOXIC DISORDERS” (THE TRUSTEES OF COLUMBIA UNIVERSITY IN THE CITY OF NEW YORK, priority 2018, published 2024).
# Entries after “also recorded” stand apart in the source; their conditions may differ.
# Experiments:
# [1] = Plasma stability, mouse plasma (Table 1); assay type: in vitro ADME
# [2] = Plasma stability, human (Table 1); assay type: in vitro ADME
# HT-1080 cells = assay: Rescue activity of selected Fer-1 analogs, dose-response in HT-1080 cells (cell titer glo); assay type: cell-based
# Method: Selected Fer-1 analogs containing a pyridine moiety (FIG. 4) were tested to examine their efficacy and overall potency in inhibiting ferroptosis. For each of these compounds, dose-response curves were generated in HT-1080 cells looking at the effectiveness of the molecules in inhibiting ferroptosis induced by either 3 μM IKE or 0.2 μM RSL3, Fer-1 was used as a positive control. For each dose-response curve, 1,000 cells/well were seeded in a 384 well plate and allowed to adhere overnight prior to treating with compound from a daughter plate. Cells were treated for 48 hours, unless otherwise noted, prior to viability being analyzed using cell titer glo (40 μL per well). All liquid handling was performed using the BioMek. All samples were prepared in triplicate, unless otherwise noted.
# [3] = Microsomal stability, rat (Table 1); assay type: in vitro ADME; conditions: liver microsomes; Rat: Sprague Dawley; read-out: Microsomal Stability t1/2 (converted)
# [4] = Plasma stability, pig (Table 1); assay type: in vitro ADME
# [5] = system: renal tubular ferroptosis; assay: Renal tubular ferroptosis model triggered by ferric nitrilotriacetate (Fe-NTA); assay type: in vivo, Sprague-Dawley rat
# Method: Fe(NO3)3·12H2O (Wako, Osaka, Japan) and nitrilotriacetic acid disodium salt (Tokyo Chemical Industry, Tokyo, Japan) were dissolved in deionized water to generate 300 mM and 600 mM solutions, respectively, which were mixed immediately before injections by a ratio of 1:2 (v/v) and then adjusted to pH 7.4 with sodium carbonate to make Fe-NTA solution. PHB4082 was dissolved in 5% DMSO/95% of 65% v/v of 25% w/v 2-hydroxypropyl-β-cyclodextrin (Cayman Chemical) dissolved in 20% EtOH, 30% v/v Poly(ethylene glycol)-400 (Sigma Aldrich 202398), 5% v/v Tween 80 (Fluka 59924) to generate 2 mg/mL solution. The same formulation without PHB4082 was used as vehicle control. For both the solutions ultrasonic disruptor was applied to accelerate the dissolution and they are stored at −20° C. up to one week before injections.
# Male wild-type Sprague-Dawley rat (CLEA Japan, Tokyo; n=6 for vehicle control, n=7 for PHB4082 pretreatment) at 4-6 weeks of age were fasted for 12 h prior to intraperitoneal administration of 2 mg/ml PHB4082 solution as pretreatment or with the formulation without PHB4082 as vehicle control. Two hours later all the rats were followed by IP injection of Fe-NTA with a dose of 10 mg iron/kg. The rats were euthanized 24 h after Fe-NTA injection. Fresh kidney tissues were excised and were either fixed in 10% phosphate-buffered formalin or preserved at −80° C. for subsequent analysis. The animal experiment committee of Nagoya University Graduate School of Medicine approved the animal experiments.
# Immunostainings were performed by BOND MAX/III (Leica, Wetzlar, Germany) with BOND Polymer Refine Detection (ds9800; Leica) as described. Primary antibodies applied were listed as: anti-4-hydroxy-2-nonenal (HNE) modified proteins antibody (anit-HNEJ-1, in house), anti-transferrin receptor antibody (13-6800, Invitrogen). Quantitation of renal tubular ferroptosis was performed by measuring the necrotized cortical area after H&E staining by identifying the area of necrotized tubules with loss of nuclei. ImageJ was used for quantification of % necrosis area with randomly selected microscopic areas (×20, objective lens; n=9).
# We evaluated the ferroptosis protection effect of PHB4082 in a renal tubular ferroptosis model. This model was previously established by Toyokuni lab (Kong et al. 2022; Toyokuni et al. 2022; Akatsuka et al. 2012). A Fenton-reaction based renal carcinogenesis in this model results from repeated intraperitoneal injections of ferric nitrilotriacetate (Fe-NTA). This iron chelate could specifically induce proximal epithelial ferroptosis via single IP administration. […] We chose 24 h after Fe-NTA administration for evaluation of the effects of PHB4082 because this is the peak time for renal tubular necrosis.
# [6] = GSH adduct formation (GSH trapping) assay; assay type: in vitro ADME
# From the text: We then tested PHB4082 in a GSH adduct formation assay and the Ames test.
smiles,measurement,setting,value
"CCOC(=O)c1ccc(NC2CCCCC2)c(N)c1 [Fer-1, Ferrostatin-1, reference compound]",Plasma Stability at six hours (% remaining),[1],0-2%
same,Plasma Stability at six hours (% remaining),[2],100%
same,death observed with RSL3,"HT-1080 cells; 0.2 μM RSL3, inhibitor range 10 μM-0 μM",No death was observed
same,rescue against IKE and erastin,"HT-1080 cells; inhibitor 1 μM-0 μM, 3 μM IKE, 10 μM erastin, 48 hours",~50%
same,half-life,[3],3 min
same,Plasma Stability at six hours (% remaining),[4],Pig: 100%
"Cc1noc(-c2ccc(NC3CCCCC3)c(NC3CCCCC3)c2)n1 [PHB4082, N1,N2-dicyclohexyl-4-(3-methyl-1,2,4-oxadiazol-5-yl)benzene-1,2-diamine]",HNE adducts in proximal tubules (HNEJ-1 immunostaining),[5]; 24 h after Fe-NTA,less amounts of HNE adducts
same,TfR1 / TRF1/CD71 signals in proximal tubules,[5]; 24 h after Fe-NTA,low to moderate signals in the proximal tubules; also recorded: less signals for TRF1/CD71
same,necrotized renal tubular area,[5]; 24 h after Fe-NTA,dramatically reduced the necrotized renal tubular area
same,survival 24 h after Fe-NTA administration,[5]; IP pretreatment 2 h before Fe-NTA 10 mg iron/kg,all of those with PHB4082 pretreatment survived 24 hrs
same,GSH adduct formation / trapping result,[6],positive in a GSH trapping assay; also recorded: positive in the GSH adduct formation assay
